For orientation: inhibition means the change of the read-out against control, counted positive when it falls.

The values that follow come from ChEMBL document CHEMBL1151233, “Biotransformation of imperatorin by Aspergillus flavus” (J Nat Prod, 2004).

Series [1] in a line: Cytotoxicity against human MS-G2 cells at 10 uM by MTT assay. Type of series: cell-based. To be noted: read-out: INH. (Tetrazolium assays rely on reduction of a dye to a coloured formazan, in cell work by metabolically active cells.)
Series [2] deals with Hepatitis B virus. Description: Antiviral activity against hepatitis B virus infected in human MS-G2 cells assessed as inhibition of e-antigen production at 100 uM after 48 hrs. Type of series: functional. The following applies: MS-G2, 48 h.
Series [3] in a line: Cytotoxicity against human MS-G2 cells at 50 uM by MTT assay. Type of series: cell-based. The following applies: read-out: INH.
Series [4] concerns Hepatitis B virus. Description: Antiviral activity against hepatitis B virus infected in human MS-G2 cells assessed as inhibition of e-antigen production at 50 uM after 48 hrs. Type of series: functional. To be noted: MS-G2, 48 h.
Series [5] has as its system Hepatitis B virus. Briefly: Antiviral activity against hepatitis B virus infected in human MS-G2 cells assessed as inhibition of surface antigen production at 50 uM after 48 hrs. Type of series: functional. To be noted: MS-G2, 48 h.
The subject of series [6] is Hepatitis B virus. Description: Antiviral activity against hepatitis B virus infected in human MS-G2 cells assessed as inhibition of surface antigen production at 100 uM after 48 hrs. Type of series: functional. To be noted: MS-G2, 48 h.
In series [7] the test system is Hepatitis B virus. Description: Antiviral activity against hepatitis B virus infected in human MS-G2 cells assessed as inhibition of e-antigen production at 10 uM after 48 hrs. Type of series: functional. The following applies: MS-G2, 48 h.
Series [8] has as its system Hepatitis B virus. Description: Antiviral activity against hepatitis B virus infected in human MS-G2 cells assessed as inhibition of surface antigen production at 10 uM after 48 hrs. To be noted: MS-G2, 48 h. Type of series: functional.
Series [9] is described as follows: Cytotoxicity against human MS-G2 cells at 100 uM by MTT assay. Type of series: cell-based. To be noted: read-out: INH.

`C/C(=C/COc1c2occc2cc2ccc(=O)oc12)C(=O)O`: the cytotoxicity at 10 µM in [1] was 11.7%. Moreover, the inhibition at 100 µM in series [2] was 12.5%; in series [6] it was 27%. For the same molecule, the cytotoxicity at 50 µM in series [3] was found to be 18.4%. The inhibition at 50 µM in [4] amounted to 1.6%; in [5], 12.3%. Also, the values for the inhibition at 10 µM in [7] and in series [8] were 0.7% and 13.2%, respectively. In addition, the cytotoxicity at 100 µM in series [9] is 14.7%.
As to `C/C(=C\COc1c2occc2cc2ccc(=O)oc12)CO`, the cytotoxicity at 10 µM in [1] turned out to be 13%. The results for the inhibition at 100 µM in [2] and in [6] were 29% and 61.3%, respectively. In [3], the cytotoxicity at 50 µM came out at 3.4%. Moreover, the inhibition at 50 µM is 16.5% in series [4] and 37.4% in [5]. Besides, the values for the inhibition at 10 µM in series [7] and in [8] were 8% and 20.9%, respectively. In addition, the cytotoxicity at 100 µM in series [9] is 10.3%.
Turning to `CC(C)=CCOc1c2occc2cc2ccc(=O)oc12` [PENTOSALEN], the cytotoxicity at 10 µM in [1] was found to be 11%. Further, the inhibition at 100 µM in [2] was found to be 34.3%; in [6], 68.4%. The cytotoxicity at 50 µM in series [3] is 8.9%. Further, the inhibition at 50 µM in [4] came to 22.5%; in [5] it was 55.3%. In addition, the inhibition at 10 µM stood at 3.8% in series [7] and 14.9% in [8]. Further, in series [9], the cytotoxicity at 100 µM is -8.7%.
As for `O=c1ccc2cc3ccoc3c(O)c2o1` [XANTHOTOXOL], the cytotoxicity at 10 µM in [1] came to 7.8%. The results for the inhibition at 100 µM in series [2] and in series [6] were 0.7% and 19.8%, respectively. For the same molecule, the cytotoxicity at 50 µM in series [3] was 12.2%. For the same molecule, the results for the inhibition at 50 µM in series [4] and in series [5] were 2.7% and 10.5%, respectively. For the same molecule, the inhibition at 10 µM was -5% in series [7] and 5.2% in [8]. Further, the cytotoxicity at 100 µM in [9] came to 17%.
Turning to `C/C(=C/COc1c2occc2cc2ccc(=O)oc12)CO` [Z-trichoclin], in series [1], the cytotoxicity at 10 µM came to 18%. Besides, the inhibition at 100 µM was 12.4% in [2] and 45.2% in series [6]. Further, the cytotoxicity at 50 µM in series [3] stood at 15%. Besides, the inhibition at 50 µM in [4] was 11.9%; in [5], 34.6%. Also, the values for the inhibition at 10 µM in series [7] and in [8] were 8.2% and 13.6%, respectively. The cytotoxicity at 100 µM in series [9] was found to be 12.6%.
